Structures can show the parent of a compound that is named as a salt. Where two headings read alike, the source gives them in different places. Values belong to the compound of their own block, whether it stands above or below them.
What was measured:
NCI-H1975 cells [1] = experiment: In vivo anticancer activity, NCI-H1975 xenograft (Experimental Example 8); design: species or system Balb/c nude mice; details: Group 2: 60 mg/kg IV BIW for 2 weeks
Description: From Day 11 (D11) to Day 22 (D22) after the transplantation, two groups of the NCI-H1975-transplanted mice were administered with compound 1-7 as summarized in Table 13, below.

NCI-H1975 cells [2] = experiment: In vivo anticancer activity, NCI-H1975 xenograft (Experimental Example 5)
Description: From Day 11 (D11) to Day 22 (D22) after the transplantation, three groups of the NCI-H1975-transplanted mice were administered with a bisodium salt of the compound of Chemical Formula 2-2 or cisplatin as summarized in Table 9, below.
The mean volume of tumors before the experiment (mean starting tumor volume) was 118 mm^3

NCI-H1975 cells [3] = experiment: In vivo anticancer activity, NCI-H1975 xenograft (Experimental Example 1); design: species or system Balb/c nude mice; details: for TGI %: Table 7 summary, NCI-H1975 (EGFR TKI resistant)
Description: Measurements of body weights and tumor sizes were randomized for n=7 per group using in-house randomization software. The tumor size was calculated from measurements of the longest axis (length, m) and the shortest axis (width, m) according to the following formula: Tumor size (mm^3): Width (mm)×Width (mm)×Length (mm)/2
The anticancer activity depending on the administration was evaluated by tumor growth inhibition, (TGI, %) calculated according to the following formulas.
When the tumor size of the drug-administered group is larger than the initial tumor size: % TGI=100*(1−(tumor volumeDay X−tumor volumeInitial for treated group)/(tumor volumeDay X−tumor volumeInitial for Vehicle group))
When the tumor size of the drug-administered group is smaller than the initial tumor size: % TGI=100+100*(1−(Treated group tumor volumeDayX/Treated group tumor volumeinitial))
Herein, mortality indicated deaths resulting from drug administration.
Herein, maximum body weight loss (MBL) means the largest loss of body weight caused by drug administration and is an important factor for determining maximum tolerable dose (MTD). The change of body weight was expressed as percentage of the body weight just before drug administration (D1). As a rule, the dose at which 10% or more of the body weight was lost was determined as the MTD.

HCC827 cells = experiment: In vivo anticancer activity, HCC827 xenograft (Experimental Example 3); details: for MBL (%): D11; for TGI %: Table 7 summary, HCC827 (EGFR TKI sensitive), dose not given
NCI-H460 cells = assay type: in vivo, Balb/c nude mice; details: for TGI %: Table 7 summary, NCI-H460 (EGFR TKI resistant), Cpd 1-1 given TIW
Description: From Day 6 (D1) to […] (D12) after the transplantation, three groups of the NCI-H460-transplanted mice were administered with compound of Chemical Formula 1-1 or paclitaxel as summarized in Table 3, below.

NCI-H1650 = experiment: In vitro cell growth inhibition (CellTiter-Glo), NCI-H1650; assay type: cell-based; details: Homo sapiens; NCI-H1650, 72 hrs
Description: (§1) This experiment aims to evaluate the in vitro anticancer activity of the pyrazino-triazine derivative (Chemical Formula 1-1P) of the present invention in various NSCLC cell lines.
(§2) NSCLC cells lines were seeded at a density of 5×10^3 cells/well into 96-well plates. Compound 1-1P and the reference drug doxorubicin were serially diluted by ½ in the concentration range of from 0.001 μM to 1 μM and the cells in each well were treated with each dilution in duplicate, followed by incubation for 72 hours in a 37° C., 5% CO2 incubator. CellTiter-Glo® (Luminescent Cell Viability Assay, #G7573, Promega) was added in an amount of 100 μL to each well and shaken for 2 min to lyze the cells. After incubation for 10 min at room temperature (25° C.), luminescence from each well was on a luminometer (Envision (Perkinelmer).
(§3) The anticancer activity depending on the administration of Compound 1-1P was evaluated over seven different NSCLC cell lines by cell growth inhibition 50 (GI50), a concentration needed to reduce the growth of treated cells to half that of untreated cells, calculated according to the following formula. GI50=(50−(y1−((y1−y2)/(x1−x2))*x1)/((y1−y2)/(x1−x2))
(§4) x1, x2=50% cell kill or lethal concentrations
(§5) y1, y2=cell densities at 50% cell kill or lethal concentrations

NCI-H460 = experiment: In vitro cell growth inhibition (CellTiter-Glo), NCI-H460; assay type: cell-based; details: Homo sapiens; NCI-H460, 72 hrs
Description: as §1, §2, §3, §4, §5

NCI-H1975 = experiment: In vitro cell growth inhibition (CellTiter-Glo), NCI-H1975; assay type: cell-based; details: Homo sapiens; NCI-H1975, 72 hrs
Description: as §1, §2, §3, §4, §5

PC6 = experiment: In vitro cell growth inhibition (CellTiter-Glo), PC6; assay type: cell-based; details: Homo sapiens, PC-6; PC6, 72 hrs
Description: as §1, §2, §3, §4, §5

NCI-H23 = experiment: In vitro cell growth inhibition (CellTiter-Glo), NCI-H23; assay type: cell-based; details: Homo sapiens; NCI-H23, 72 hrs
Description: as §1, §2, §3, §4, §5

A549 = experiment: In vitro cell growth inhibition (CellTiter-Glo), A549; assay type: cell-based; details: Homo sapiens; A549, 72 hrs
Description: as §1, §2, §3, §4, §5

HCC827 = experiment: In vitro cell growth inhibition (CellTiter-Glo), HCC827; assay type: cell-based; details: Homo sapiens; HCC827, 72 hrs
Description: as §1, §2, §3, §4, §5

NCI-H1975 cells [4] = experiment: In vivo anticancer activity, NCI-H1975 xenograft (Experimental Example 6); design: species or system Balb/c nude mice
Description: From Day 11 (D11) to Day 22 (D22) after the transplantation, five groups of the NCI-H1975-transplanted mice were administered with compounds 1-3 and 1-5 as summarized in Table 11, below.

[5] = Group 3: cisplatin 2.5 mg/kg IV BIW for 2 weeks
[6] = Group 2: 1-1 100 mg/kg iv once a day, ten injections (D8-12, 15-19)
[7] = Group 3: 1-1 150 mg/kg iv once a day, ten injections (D8-12, 15-19)
[8] = Group 2: 1-1 100 mg/kg iv once a day, 20 injections over four weeks
[9] = Group 3: 1-1 150 mg/kg iv once a day, 20 injections over four weeks
[10] = Group 2: 1-1 150 mg/kg iv, six injections (D1, 3, 5, 8, 10, 12)
[11] = Group 6: paclitaxel 7.5 mg/kg ip once a week, two injections
[12] = Group 6: paclitaxel 10 mg/kg ip once per week, four injections
[13] = Group 3: paclitaxel 20 mg/kg ip (D1, 3, 5, 8, 10, 12)
[14] = Group 2: 40 mg/kg IV QDx5 for 2 weeks
[15] = Group 3: 30 mg/kg IV QDx5 for 2 weeks
[16] = Group 2: 200 mg/kg IV QDx5 for 2 weeks

SMILES: C=CCN1CC(=O)N2[C@@H](Cc3ccc(O)cc3)C(=O)N(Cc3cccc4c(C(=O)Nc5ccc(NCCN6CCOCC6)nc5)cn(C)c34)C[C@@H]2N1C(=O)NCc1ccccc1.Cl [Compound 1-7]
Mortality (NCI-H1975 cells [1]): 0/5 | TGI % D22 (NCI-H1975 cells [1]): 41% | Tumor size @D 22 (Mean ± S.E. mm^3) (NCI-H1975 cells [1]): 410 mm^3

SMILES: N.N.[Cl][Pt][Cl] [Cisplatin, reference compound]
Mortality (NCI-H1975 cells [2]; [5]): 0/6 | TGI % D22 (NCI-H1975 cells [2]; [5]): 23% | Tumor size @D 22 (Mean ± S.E. mm^3) (NCI-H1975 cells [2]; [5]): 750 ± 53 mm^3

SMILES: C=CCN1CC(=O)N2[C@@H](Cc3ccc(OP(=O)([O-])O)cc3)C(=O)N(Cc3cccc4c(C(C)=O)cn(C)c34)C[C@@H]2N1C(=O)NCc1ccccc1.[Na+] [Compound 1-1]
Tumor size on D22 compared with vehicle control (NCI-H1975 cells [3]; D22, dose not given): significantly reduced | Mortality (NCI-H1975 cells [3]; [6]): 0/7 | TGI % D22 (NCI-H1975 cells [3]; [6]): 74% | Tumor size @D 22) (Mean ± S.E. mm3) (NCI-H1975 cells [3]; [6]): 307 ± 97 mm3 | Mortality (NCI-H1975 cells [3]; [7]): 0/7 | TGI % D22 (NCI-H1975 cells [3]; [7]): 109% | Tumor size @D 22) (Mean ± S.E. mm3) (NCI-H1975 cells [3]; [7]): 57 ± 22 mm3 | TGI % (NCI-H1975 cells [3]; dose not given): 100% | Mortality (HCC827 cells; [8]): 0/7 | TGI % D33 (HCC827 cells; [8]): 50% | Tumor size @D 33 (Mean ± S.E. mm^3) (HCC827 cells; [8]): 380 ± 29 mm^3 | MBL (%) (HCC827 cells; [8]): 1 (D11) % | Mortality (HCC827 cells; [9]): 0/7 | TGI % D33 (HCC827 cells; [9]): 68% | Tumor size @D 33 (Mean ± S.E. mm^3) (HCC827 cells; [9]): 262 ± 30 mm^3 | MBL (%) (HCC827 cells; [9]): 1 (D11) % | TGI % (HCC827 cells): 78% | Mortality (NCI-H460 cells; [10]): 0/6 | TGI % D12 (NCI-H460 cells; [10]): 25% | Tumor size @D 12 (Mean ± S.E. mm^3) (NCI-H460 cells; [10]): 1196 ± 247 mm^3 | MBL (%) (NCI-H460 cells; Group 2: 1-1 150 mg/kg iv, six injections (D1, 3, 5, 8, 10, 12), @D2): 4 (@D2) % | TGI % (NCI-H460 cells): 25%

SMILES: CC(=O)O[C@H]1C(=O)[C@@]2(C)[C@H]([C@H](OC(=O)c3ccccc3)[C@]3(O)C[C@H](OC(=O)[C@H](O)[C@@H](NC(=O)c4ccccc4)c4ccccc4)C(C)=C1C3(C)C)[C@]1(OC(C)=O)CO[C@@H]1C[C@@H]2O [Paclitaxel, reference compound]
Mortality (NCI-H1975 cells [3]; [11]): 0/7 | TGI % D22 (NCI-H1975 cells [3]; [11]): 28% | Tumor size @D 22) (Mean ± S.E. mm3) (NCI-H1975 cells [3]; [11]): 736 ± 79 mm3 | TGI % (NCI-H1975 cells [3]; dose not given): >30% | Mortality (HCC827 cells; [12]): 0/6 | TGI % D33 (HCC827 cells; [12]): 18% | Tumor size @D 33 (Mean ± S.E. mm^3) (HCC827 cells; [12]): 557 ± 83 mm^3 | TGI % (HCC827 cells): >18% | Mortality (NCI-H460 cells; [13]): 0/6 | TGI % D12 (NCI-H460 cells; [13]): 15% | Tumor size @D 12 (Mean ± S.E. mm^3) (NCI-H460 cells; [13]): 1339 ± 260 mm^3 | TGI % (NCI-H460 cells): >15%

GI50 (NCI-H1650): 156 nM | GI50 (NCI-H460): 272 nM | GI50 (NCI-H1975): 111 nM | GI50 (NCI-H23): 67 nM | GI50 (A549): 372 nM | GI50 (HCC827): 115 nM
SMILES: C=CCN1CC(=O)N2[C@@H](Cc3ccc(O)cc3)C(=O)N(Cc3cccc4c(C(C)=O)cn(C)c34)C[C@@H]2N1C(=O)NCc1ccccc1 [Compound 1-1P]
GI50 (PC6): 493 nM

SMILES: C=CCN1CC(=O)N2[C@@H](Cc3ccc(OP(=O)(O)O)cc3)C(=O)N(Cc3cccc4c(-c5ccc(C(=O)N6CCCCC6)cc5)cn(C)c34)C[C@@H]2N1C(=O)NCc1ccccc1 [Compound 1-3]
Mortality (NCI-H1975 cells [4]; [14]): 0/6 | TGI % D22 (NCI-H1975 cells [4]; [14]): 62% | Tumor size @D 22 (Mean ± S.E. mm^3) (NCI-H1975 cells [4]; [14]): 571 ± 38 mm^3 | MBL (%) (NCI-H1975 cells [4]; Group 2: 40 mg/kg IV QDx5 for 2 weeks, D19): 4 (D19) %

SMILES: C=CCN1CC(=O)N2[C@@H](Cc3ccc(OP(=O)(O)O)cc3)C(=O)N(Cc3cccc4c(C(=O)Nc5ccc(N(C)C)nc5)cn(C)c34)C[C@@H]2N1C(=O)NCc1ccccc1 [Compound 1-5]
Mortality (NCI-H1975 cells [4]; [15]): 0/6 | TGI % D22 (NCI-H1975 cells [4]; [15]): 71% | Tumor size @D 22 (Mean ± S.E. mm^3) (NCI-H1975 cells [4]; [15]): 464 ± 45 mm^3 | MBL (%) (NCI-H1975 cells [4]; Group 3: 30 mg/kg IV QDx5 for 2 weeks, D12): 5 (D12) %

SMILES: C[C@H]1[C@H]2N(C(=O)CN(C)N2C(=O)NCc2ccccc2)[C@@H](Cc2ccc(OP(=O)(O)O)cc2)C(=O)N1Cc1cccc2cccnc12 [2Na Salt of Cpd. 2-2]
MBL (%) (NCI-H1975 cells [2]; [16]): no loss | Mortality (NCI-H1975 cells [2]; [16]): 0/6 | TGI % D22 (NCI-H1975 cells [2]; [16]): 27% | Tumor size @D 22 (Mean ± S.E. mm^3) (NCI-H1975 cells [2]; [16]): 720 ± 104 mm^3

From US9353119B2, “Composition for preventing and treating non-small cell lung cancer, containing pyrazino-triazine derivatives” (JW PHARMACEUTICAL CORPORATION, priority 2011, dated 2016)
